Reference: PubChem BioAssay AID248 (DTP/NCI, 2004)
“And” between values parts separate entries of the source, which are not always exact repeats. Equal entries are not always repeated. Toxic doses and inconclusive results are not listed. No stated cut-off is given here; in the data, active means T/C of 150% or more; inactive means T/C below 125%.

System: L1210 leukemia ip in BDF1 mice, survival T/C
Assay: NCI In Vivo Anticancer Drug Screen. Data for tumor model L1210 Leukemia (intraperitoneal) in B6D2F1 (BDF1) mice
Settings: endpoint: mean survival time, higher = longer survival
Method in brief: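 Ratio derived from survival: compound-dosed mice over vehicle-dosed mice, all bearing a transplantable tumor.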

[1] = dose: 50.0 mg/kg/injection, schedule: Q01DX009 (ip), vehicle: saline with Tween-80
[2] = dose: 100.0 mg/kg/injection, schedule: Q01DX009 (ip), vehicle: saline with Tween-80
[3] = dose: 200.0 mg/kg/injection, schedule: Q01DX009 (ip), vehicle: saline with Tween-80
[4] = dose: 100.0 mg/kg/injection, schedule: Q04DX003 (ip), vehicle: Klucel (hydroxypropylcellulose) (HPC)
[5] = dose: 200.0 mg/kg/injection, schedule: Q04DX003 (ip), vehicle: Klucel (hydroxypropylcellulose) (HPC)
[6] = dose: 400.0 mg/kg/injection, schedule: Q04DX003 (ip), vehicle: Klucel (hydroxypropylcellulose) (HPC)
[7] = dose: 100.0 mg/kg/injection, schedule: Q01DX001 (ip), vehicle: carboxymethylcellulose (CMC)
[8] = dose: 200.0 mg/kg/injection, schedule: Q01DX001 (ip), vehicle: carboxymethylcellulose (CMC)
[9] = dose: 400.0 mg/kg/injection, schedule: Q01DX001 (ip), vehicle: carboxymethylcellulose (CMC)
[10] = dose: 100.0 mg/kg/injection, schedule: Q01DX001 (ip), vehicle: saline
[11] = dose: 200.0 mg/kg/injection, schedule: Q01DX001 (ip), vehicle: saline
[12] = dose: 200.0 mg/kg/injection, schedule: Q01DX001 (ip), vehicle: saline with Tween-80
[13] = dose: 100.0 mg/kg/injection, schedule: Q01DX001 (ip), vehicle: saline with Tween-80
[14] = dose: 100.0 mg/kg/injection, schedule: Q04DX003 (ip), vehicle: saline
[15] = dose: 200.0 mg/kg/injection, schedule: Q04DX003 (ip), vehicle: saline
[16] = dose: 400.0 mg/kg/injection, schedule: Q04DX003 (ip), vehicle: saline

Measured: T/C

FC(F)(F)c1ccc2c(c1)N(CCCN1CCN(CC[n+]3ccccc3)CC1)c1ccccc1S2
inactive: dose: 1.56 mg/kg/injection, schedule: Q01DX009 (ip), vehicle: saline 95 % of control | dose: 3.12 mg/kg/injection, schedule: Q01DX009 (ip), vehicle: saline 95 % of control | dose: 6.25 mg/kg/injection, schedule: Q01DX009 (ip), vehicle: saline 110 % of control | dose: 9.2 mg/kg/injection, schedule: Q01DX009 (ip), vehicle: saline 120 % of control | dose: 12.5 mg/kg/injection, schedule: Q04DX003 (ip), vehicle: saline 101 % of control | dose: 14.0 mg/kg/injection, schedule: Q01DX009 (ip), vehicle: saline 109 % of control | dose: 25.0 mg/kg/injection, schedule: Q04DX003 (ip), vehicle: saline 97 % of control

N#Cc1cnc(SCc2ccccc2)nc1N
inactive: dose: 100.0 mg/kg/injection, schedule: Q01DX001 (ip), vehicle: gum acacia 95 % of control | dose: 100.0 mg/kg/injection, schedule: Q01DX009 (ip), vehicle: gum acacia 95 % of control | dose: 200.0 mg/kg/injection, schedule: Q01DX001 (ip), vehicle: gum acacia 95 % of control | dose: 200.0 mg/kg/injection, schedule: Q01DX009 (ip), vehicle: gum acacia 98 % of control | dose: 400.0 mg/kg/injection, schedule: Q01DX001 (ip), vehicle: gum acacia 98 % of control | dose: 400.0 mg/kg/injection, schedule: Q01DX009 (ip), vehicle: gum acacia 107 % of control

Nc1[nH]cnc(=S)c1NC=O
inactive: dose: 100.0 mg/kg/injection, schedule: Q01DX001 (ip), vehicle: acetone 92 % of control | dose: 200.0 mg/kg/injection, schedule: Q01DX001 (ip), vehicle: acetone 92 % of control | dose: 400.0 mg/kg/injection, schedule: Q01DX001 (ip), vehicle: acetone 88 % of control

N#CCCC1=C(O)CCCC1=O
inactive: [1] 93 % of control | [2] 93 % of control | [3] 97 % of control

O=C1c2c(cccc2NCCO)Cc2cccc(NCCO)c21
inactive: dose: 100.0 mg/kg/injection, schedule: Q01DX001 (ip), vehicle: Klucel (hydroxypropylcellulose) (HPC) 102 % of control | [4] 98 % of control | dose: 200.0 mg/kg/injection, schedule: Q01DX001 (ip), vehicle: Klucel (hydroxypropylcellulose) (HPC) 104 % of control | [5] 93 % of control | dose: 400.0 mg/kg/injection, schedule: Q01DX001 (ip), vehicle: Klucel (hydroxypropylcellulose) (HPC) 96 % of control | [6] 96 % of control

Cc1ccc(O)c(C(=O)c2ccccc2)c1
inactive: dose: 50.0 mg/kg/injection, schedule: Q01DX001 (ip), vehicle: carboxymethylcellulose (CMC) 96 % of control | [7] 99 % of control | [8] 89 % of control | [9] 94 % of control

O=C1c2ccccc2C(=O)c2c(Nc3ccc(S(=O)(=O)N(CCO)CCO)cc3)ccc(O)c21
inactive: [10] 97 % of control | [11] 100 % of control

CCN(CC)CCCOP(=O)(N(CC)CC)N(CCCl)CCCl (stereo unspecified)
inactive: [12] 101 % of control

CC(=O)Oc1c2ccsc2cc2sccc12
inactive: [13] 96 % of control | [12] 94 % of control | dose: 400.0 mg/kg/injection, schedule: Q01DX001 (ip), vehicle: saline with Tween-80 94 % of control

CC1C(=O)C2(C)C3(C)C(=O)C(C)(C(c4ccccc4)=C3c3ccccc3)C2(c2ccccc2)C1c1ccccc1 (stereo unspecified) (tested in a mixture with another compound)
inactive: [1] 98 % of control | [2] 95 % of control | [3] 95 % of control

O=C(O)c1[nH]c(=O)[nH]c(=O)c1N1CCCCC1
inactive: dose: 12.0 mg/kg/injection, schedule: Q01DX001 (ip), vehicle: saline 106 % of control | dose: 25.0 mg/kg/injection, schedule: Q01DX001 (ip), vehicle: saline 101 % of control | dose: 25.0 mg/kg/injection, schedule: Q01DX009 (ip), vehicle: Klucel (hydroxypropylcellulose) (HPC) 105 % of control | dose: 50.0 mg/kg/injection, schedule: Q01DX009 (ip), vehicle: Klucel (hydroxypropylcellulose) (HPC) 92 % of control

Nc1ncnc2c1ncn2[C@H]1CC[C@@H](CO)C1
inactive: [10] 106 % of control | [11] 97 % of control

BrCC(Br)C(Br)CBr (stereo unspecified)
inactive: dose: 100.0 mg/kg/injection, schedule: Q01DX009 (ip), vehicle: saline 93 % of control | [14] 113 % of control | dose: 200.0 mg/kg/injection, schedule: Q01DX009 (ip), vehicle: saline 97 % of control | [15] 108 % of control | dose: 400.0 mg/kg/injection, schedule: Q01DX009 (ip), vehicle: saline 93 % of control | [16] 98 % of control

O=C(NC(=S)Nc1cccc(C(F)(F)F)c1)c1cc([N+](=O)[O-])cc([N+](=O)[O-])c1
inactive: [13] 93 % of control | [2] 89 % of control | dose: 100.0 mg/kg/injection, schedule: Q04DX002 (ip), vehicle: saline with Tween-80 101 % of control | [12] 98 % of control | [3] 87 % of control and 89 % of control | dose: 200.0 mg/kg/injection, schedule: Q04DX002 (ip), vehicle: saline with Tween-80 94 % of control | dose: 400.0 mg/kg/injection, schedule: Q04DX002 (ip), vehicle: saline with Tween-80 97 % of control

Nc1cc(Cl)ccc1Cl
inactive: dose: 100.0 mg/kg/injection, schedule: Q04DX002 (ip), vehicle: gum acacia 91 % of control | dose: 200.0 mg/kg/injection, schedule: Q04DX002 (ip), vehicle: gum acacia 95 % of control | dose: 400.0 mg/kg/injection, schedule: Q04DX002 (ip), vehicle: gum acacia 95 % of control

CCCc1c(OCC)c(OC)c2c3c(c(-c4c(C)cc5c(CCC)c(OCC)c(OC)c6c5c4OC6NNc4ccccc4)c(C)cc13)OC2NNc1ccccc1 (stereo unspecified)
inactive: dose: 75.0 mg/kg/injection, schedule: Q01DX001 (ip), vehicle: Klucel (hydroxypropylcellulose) (HPC) 98 % of control | dose: 150.0 mg/kg/injection, schedule: Q01DX001 (ip), vehicle: Klucel (hydroxypropylcellulose) (HPC) 93 % of control | dose: 300.0 mg/kg/injection, schedule: Q01DX001 (ip), vehicle: Klucel (hydroxypropylcellulose) (HPC) 91 % of control | dose: 300.0 mg/kg/injection, schedule: Q04DX003 (ip), vehicle: Klucel (hydroxypropylcellulose) (HPC) 87 % of control

COC(=O)CC(=O)c1ccc(OCCOc2ccc(C(C)(C)CC(C)(C)C)cc2)c([N+](=O)[O-])c1
inactive: dose: 100.0 mg/kg/injection, schedule: Q01DX009 (ip), vehicle: saline sonified 91 % of control | [4] 93 % of control | dose: 200.0 mg/kg/injection, schedule: Q01DX009 (ip), vehicle: saline sonified 96 % of control | [5] 96 % of control | dose: 400.0 mg/kg/injection, schedule: Q01DX009 (ip), vehicle: saline sonified 95 % of control | [6] 93 % of control

O=C(Nc1ccc(Cl)cc1)NC1CCCCC1
inactive: [4] 92 % of control | [5] 92 % of control | [6] 92 % of control

O=C1c2ccc(Br)cc2-c2cc(Br)c([N+](=O)[O-])cc21
inactive: [7] 98 % of control | [8] 98 % of control | [9] 113 % of control

Cc1cccnc1NC(=S)Nc1cccc(C(F)(F)F)c1
inactive: dose: 100.0 mg/kg/injection, schedule: Q04DX002 (ip), vehicle: Klucel (hydroxypropylcellulose) (HPC) 95 % of control | dose: 200.0 mg/kg/injection, schedule: Q04DX002 (ip), vehicle: Klucel (hydroxypropylcellulose) (HPC) 95 % of control | dose: 400.0 mg/kg/injection, schedule: Q04DX002 (ip), vehicle: Klucel (hydroxypropylcellulose) (HPC) 92 % of control

O=C(Nc1ccc(F)c(Cl)c1)Nc1ccc(Cl)c(C(F)(F)F)c1
inactive: [2] 88 % of control | [3] 98 % of control

CC(C)(C)CNC(=S)Nc1ccccc1
inactive: dose: 9.5 mg/kg/injection, schedule: Q01DX001 (ip), vehicle: other 98 % of control | dose: 19.0 mg/kg/injection, schedule: Q01DX001 (ip), vehicle: other 102 % of control | dose: 38.0 mg/kg/injection, schedule: Q01DX001 (ip), vehicle: other 104 % of control | dose: 75.0 mg/kg/injection, schedule: Q01DX001 (ip), vehicle: other 90 % of control

NC(=O)C(O)c1ccccc1 (stereo unspecified)
inactive: [14] 96 % of control | [15] 94 % of control | [16] 100 % of control

CC1=NNC(=O)C1(Cl)c1ccc(N)cc1 (stereo unspecified)
inactive: [10] 102 % of control | [11] 100 % of control | dose: 400.0 mg/kg/injection, schedule: Q01DX001 (ip), vehicle: saline 100 % of control
